Results from article PMC3465710 (Biochemistry, 2011).
Values joined by “and” are separate entries in the source; they are usually repeats but may differ in a detail not shown here. Identical values can stand only once. Like-named read-outs stand apart in the source and are kept apart here. Blank lines part the entries; values can stand above or below the compound they belong to.

What was measured:
GLUT1 [1] = target: T1, GLUT1 (Homo sapiens, UniProt P11166); assay type: binding; conditions: for β (cooperativity parameter, second inhibitor molecule) / γ (hetero-cooperativity parameter) / Inhibition (type of modulation of CB binding) / Ki: 50 nM [3H]-CB; for β (cooperativity parameter, second inhibitor molecule) / γ (hetero-cooperativity parameter): eqn 6; for Inhibition (type of modulation of CB binding): competing ligand 0 to 100 μM; for α (homo-cooperativity factor): CB inhibition of [3H]-CB binding; for ΔG°: calculated as RT ln(1/KI); for β*γ: product
T1 sequence (P11166 1-492): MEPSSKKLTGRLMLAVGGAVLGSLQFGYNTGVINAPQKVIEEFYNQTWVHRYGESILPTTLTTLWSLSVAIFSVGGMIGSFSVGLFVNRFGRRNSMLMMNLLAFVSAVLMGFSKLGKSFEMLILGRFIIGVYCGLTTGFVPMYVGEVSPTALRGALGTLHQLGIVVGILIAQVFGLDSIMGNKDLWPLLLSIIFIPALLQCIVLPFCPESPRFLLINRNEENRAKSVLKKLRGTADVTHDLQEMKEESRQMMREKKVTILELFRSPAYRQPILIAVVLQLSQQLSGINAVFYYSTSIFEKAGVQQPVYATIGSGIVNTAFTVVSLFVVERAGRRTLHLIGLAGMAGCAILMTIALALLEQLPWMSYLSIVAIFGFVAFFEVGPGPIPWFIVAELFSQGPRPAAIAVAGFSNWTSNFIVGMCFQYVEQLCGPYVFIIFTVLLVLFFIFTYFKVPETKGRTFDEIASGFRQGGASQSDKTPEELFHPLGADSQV

[2] = tested on: [3H]-CB binding to red cell membranes; conditions: cited from earlier work
GLUT1 [3] = target: T1, GLUT1; conditions: 4°C; cited from earlier work
[4] = target: T2, GLUT1-mediated sugar transport in red cells (Homo sapiens, UniProt P11166); test: Zero-trans 3-O-methylglucose uptake in red cells; assay type: cell-based
T2 sequence (P11166 1-492): T1 sequence (P11166 1-492)

[5] = target: T2, GLUT1-mediated sugar transport in red cells; test: Equilibrium exchange 3-O-methylglucose uptake in red cells; assay type: cell-based
GLUT1 [6] = target: T1, GLUT1
GLUT1 [7] = target: T1, GLUT1; test: biochemical
[8] = Ki (affinity of unoccupied GLUT1 for ligand), 4°C, eqn 6, iterative free [I]
[9] = Ki, eqn 6, values in text or legends

Compound: C=C1[C@@H](C)[C@H]2[C@H](Cc3ccccc3)NC(=O)[C@]23OC(=O)/C=C/[C@H](O)CCC[C@@H](C)C/C=C/[C@H]3[C@@H]1O [CCB, Cytochalasin B]
- β (cooperativity parameter, second inhibitor molecule) (GLUT1 [1]; 4°C): 6.284 ± 3.849
- γ (hetero-cooperativity parameter) (GLUT1 [1]; 4°C): 6.284 ± 3.849
- β (cooperativity parameter, second inhibitor molecule) (GLUT1 [1]; 4°C, listed as CB): 6.3
- γ (hetero-cooperativity parameter) (GLUT1 [1]; 4°C, listed as CB): 6.3
- Inhibition (type of modulation of CB binding) (GLUT1 [1]): 1
- α (homo-cooperativity factor) (GLUT1 [1]; 4°C): 6.284 ±3.849
- α (homo-cooperativity factor) (GLUT1 [1]; 4°C, listed as CB): 6.284 ± 0.558
- ΔG° (GLUT1 [1]): -8.88 kcal/mol
- α (GLUT1 [1]; fit versus measured free CB): 5.441 ± 0.558
- α (GLUT1 [1]; fit versus simulated free CB): 7.01 ± 0.53
- α (GLUT1 [1]; fit versus total CB): 10.0 ± 1.0
- β*γ (GLUT1 [1]): 39
- inhibition of CB binding [2]: high affinity
- time constant of binding to GLUT1 (GLUT1 [3]): 1 s

- β (cooperativity parameter, second inhibitor molecule) (GLUT1 [1]; 4°C): 1.54 ± 0.73
- γ (hetero-cooperativity parameter) (GLUT1 [1]; 4°C): 0.93 ± 0.10 and 0.930 ± 0.103 and 0.9
- γ (hetero-cooperativity parameter) (GLUT1 [1]; 4°C, listed as forskolin): 0.93
- Inhibition (type of modulation of CB binding) (GLUT1 [1]): 1
- Ki (GLUT1 [1]; [8]): 3.28 ± 0.96 µM
- Ki (GLUT1 [1]; [9]): 3.28 ± 0.98 µM
- ΔG° (GLUT1 [1]): -6.95 kcal/mol
- β*γ (GLUT1 [1]): 1
- Ki [4]: 1.9 ± 0.4 µM
- mode of inhibition of net sugar uptake ([4]; human erythrocytes): noncompetitive inhibitor
- Kmapp for 3MG uptake in presence of inhibitor ([4]; zero-trans, 2 μM FSK): 1.09 ± 0.15 mM
- Vmax for 3MG uptake in presence of inhibitor ([4]; zero-trans, 2 μM FSK): 0.055 ± 0.004 mM/L/min
- Ki [5]: 1.2 ± 0.6 µM
- Kmapp for 3MG uptake in presence of inhibitor ([5]; equilibrium exchange, 2 μM FSK): 48.5 ± 7.3 mM
- Vmax for 3MG uptake in presence of inhibitor ([5]; equilibrium exchange, 2 μM FSK): 8.3 ± 0.7 mM/L/min
- mode of inhibition of exchange sugar uptake ([5]; human erythrocytes): competitive inhibitor
- Kd for forskolin binding relative to Kd for CB binding (GLUT1 [6]): at least 20 fold
- α (homo-cooperativity factor) (GLUT1 [6]; FSK inhibition of [3H]-FSK binding, 4°C): 2.43 ± 0.23
- α (GLUT1 [6]; fit versus measured free FSK): 2.400 ± 0.212
- α (GLUT1 [6]; fit versus simulated free FSK): 2.434 ± 0.235
- α (GLUT1 [6]; fit versus total FSK): 2.383 ± 2.116
- Kd (GLUT1 [7]; KL, FSK inhibition of [3H]-FSK binding (50 nM), 4°C, eqn 7, assumes α = β = γ): 2.75 ± 0.787 µM
- Kd (GLUT1 [7]; Kl, fit versus measured free FSK): 2.83 ± 0.754 µM
- Kd (GLUT1 [7]; Kl, fit versus total FSK): 3.33 ± 0.893 µM
Compound: C=C[C@@]1(C)CC(=O)[C@]2(O)[C@@]3(C)[C@@H](O)CCC(C)(C)[C@@H]3[C@H](O)[C@H](OC(C)=O)[C@@]2(C)O1 [FSK, forskolin]

Compound: C[C@H]1C/C=C/[C@H]2[C@@H]3O[C@]3(C)[C@@H](C)[C@H]3[C@H](Cc4ccccc4)NC(=O)[C@]32OC(=O)O/C=C/[C@@](C)(O)C1=O [CCE, Cytochalasin E]
- β (cooperativity parameter, second inhibitor molecule) (GLUT1 [1]; 4°C): 7917 ± 2935
- γ (hetero-cooperativity parameter) (GLUT1 [1]; 4°C): 0.555 ± 0.016
- Inhibition (type of modulation of CB binding) (GLUT1 [1]): 3
- Kd (GLUT1 [1]; KL (Table 2, taken from Table 1), cytochalasins, rounded values): 0.1 µM
- Ki (GLUT1 [1]; [8]): 0.099 ± 0.008 µM
- Ki (GLUT1 [1]; [9]): 0.1 µM
- ΔG° (GLUT1 [1]): -8.88 kcal/mol
- ΔΔG° (GLUT1 [1]; change in ΔG° relative to baseline cytochalasin or forskolin): 0.01 kcal/mol
- β*γ (GLUT1 [1]): 4394
- Ki ([2]; read-out: Ki(app) for inhibition of [3H]-CB binding, red cell membranes): ≥ 100 µM
